Holding throughout (experiment): kinase binding screen (kinase-tagged T7 phage, qPCR), % Ctrl
One assay deals with CAMK2G (Homo sapiens, UniProt Q13555). Put shortly: (§1)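 Competition binding: kinase-tagged T7 phage (grown in BL21-derived E. coli, lysed at 32° C) incubated with immobilized ligand on biotin-blocked beads plus test compound; bound kinase in eluates quantified by qPCR. Compounds tested at a single set concentration, added from 40× DMSO stocks.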
The next assay deals with CLK4 (Homo sapiens, UniProt Q9HAZ1). Put shortly: as §1
Another assay has as its target IRAK1 (Homo sapiens, UniProt P51617). In a few lines:
as §1

In a further assay the target is T1, MAP3K2 (Homo sapiens, UniProt Q9Y2U5).
T1 sequence (Q9Y2U5 1-619): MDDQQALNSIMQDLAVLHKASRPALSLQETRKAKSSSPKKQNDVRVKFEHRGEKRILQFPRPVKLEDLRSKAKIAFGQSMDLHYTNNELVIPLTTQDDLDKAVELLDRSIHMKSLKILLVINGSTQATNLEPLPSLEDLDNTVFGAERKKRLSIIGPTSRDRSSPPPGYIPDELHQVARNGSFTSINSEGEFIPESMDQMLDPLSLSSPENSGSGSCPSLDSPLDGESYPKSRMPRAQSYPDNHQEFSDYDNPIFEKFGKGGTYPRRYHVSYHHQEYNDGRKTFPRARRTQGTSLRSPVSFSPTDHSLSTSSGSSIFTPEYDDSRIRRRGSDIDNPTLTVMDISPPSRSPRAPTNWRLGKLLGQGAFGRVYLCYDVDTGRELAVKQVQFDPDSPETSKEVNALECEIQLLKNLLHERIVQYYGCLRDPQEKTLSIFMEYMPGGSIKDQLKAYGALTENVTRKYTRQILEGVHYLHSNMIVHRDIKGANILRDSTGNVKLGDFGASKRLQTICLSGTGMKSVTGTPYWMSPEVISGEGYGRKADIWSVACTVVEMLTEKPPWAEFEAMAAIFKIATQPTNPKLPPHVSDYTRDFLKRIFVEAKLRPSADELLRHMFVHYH
Put shortly: as §1

In a further assay the target is ROCK2 (Homo sapiens, UniProt O75116). Put shortly: as §1
Assay [1] concerns the target RPS6KA2(Kin.Dom.2-C-terminal) (Homo sapiens, UniProt Q15349). In a few lines:
as §1

The next assay deals with T2, YSK4 (Homo sapiens, UniProt Q56UN5).
T2 sequence (Q56UN5 1-1328): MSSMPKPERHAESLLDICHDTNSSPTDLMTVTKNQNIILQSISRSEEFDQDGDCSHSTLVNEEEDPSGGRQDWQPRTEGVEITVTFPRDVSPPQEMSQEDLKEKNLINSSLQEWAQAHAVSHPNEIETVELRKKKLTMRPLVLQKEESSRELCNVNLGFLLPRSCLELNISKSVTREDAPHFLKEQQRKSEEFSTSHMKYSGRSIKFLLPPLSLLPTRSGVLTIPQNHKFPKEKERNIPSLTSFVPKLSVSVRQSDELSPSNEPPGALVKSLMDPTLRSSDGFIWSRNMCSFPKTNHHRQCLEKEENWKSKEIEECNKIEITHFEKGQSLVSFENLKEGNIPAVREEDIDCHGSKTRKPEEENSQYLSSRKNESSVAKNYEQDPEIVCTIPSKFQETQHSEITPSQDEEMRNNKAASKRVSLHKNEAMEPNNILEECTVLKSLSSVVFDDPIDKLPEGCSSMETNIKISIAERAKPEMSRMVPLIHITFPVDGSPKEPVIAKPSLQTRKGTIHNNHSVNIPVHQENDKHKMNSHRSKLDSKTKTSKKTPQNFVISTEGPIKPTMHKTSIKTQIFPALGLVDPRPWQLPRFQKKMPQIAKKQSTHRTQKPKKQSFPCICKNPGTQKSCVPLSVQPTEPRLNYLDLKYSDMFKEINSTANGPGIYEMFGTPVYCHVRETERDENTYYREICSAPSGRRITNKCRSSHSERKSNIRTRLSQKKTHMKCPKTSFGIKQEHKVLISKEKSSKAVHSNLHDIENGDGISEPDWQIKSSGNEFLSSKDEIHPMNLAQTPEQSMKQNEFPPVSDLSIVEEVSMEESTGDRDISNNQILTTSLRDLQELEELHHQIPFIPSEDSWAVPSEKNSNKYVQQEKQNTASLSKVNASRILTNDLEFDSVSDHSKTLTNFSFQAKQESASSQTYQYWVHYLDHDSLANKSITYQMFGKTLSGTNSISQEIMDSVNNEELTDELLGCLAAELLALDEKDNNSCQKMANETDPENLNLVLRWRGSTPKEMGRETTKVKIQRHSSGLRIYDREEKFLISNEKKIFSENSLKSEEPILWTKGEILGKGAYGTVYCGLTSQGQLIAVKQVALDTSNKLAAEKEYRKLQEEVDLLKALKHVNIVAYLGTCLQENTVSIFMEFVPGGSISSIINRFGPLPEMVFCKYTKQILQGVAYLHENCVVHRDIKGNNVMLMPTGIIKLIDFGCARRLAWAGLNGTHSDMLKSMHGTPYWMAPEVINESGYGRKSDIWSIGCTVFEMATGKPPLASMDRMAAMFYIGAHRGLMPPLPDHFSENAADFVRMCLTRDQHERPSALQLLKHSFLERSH
Put shortly: as §1

Chain of IRAK1 (P51617 whole entry, species assumed): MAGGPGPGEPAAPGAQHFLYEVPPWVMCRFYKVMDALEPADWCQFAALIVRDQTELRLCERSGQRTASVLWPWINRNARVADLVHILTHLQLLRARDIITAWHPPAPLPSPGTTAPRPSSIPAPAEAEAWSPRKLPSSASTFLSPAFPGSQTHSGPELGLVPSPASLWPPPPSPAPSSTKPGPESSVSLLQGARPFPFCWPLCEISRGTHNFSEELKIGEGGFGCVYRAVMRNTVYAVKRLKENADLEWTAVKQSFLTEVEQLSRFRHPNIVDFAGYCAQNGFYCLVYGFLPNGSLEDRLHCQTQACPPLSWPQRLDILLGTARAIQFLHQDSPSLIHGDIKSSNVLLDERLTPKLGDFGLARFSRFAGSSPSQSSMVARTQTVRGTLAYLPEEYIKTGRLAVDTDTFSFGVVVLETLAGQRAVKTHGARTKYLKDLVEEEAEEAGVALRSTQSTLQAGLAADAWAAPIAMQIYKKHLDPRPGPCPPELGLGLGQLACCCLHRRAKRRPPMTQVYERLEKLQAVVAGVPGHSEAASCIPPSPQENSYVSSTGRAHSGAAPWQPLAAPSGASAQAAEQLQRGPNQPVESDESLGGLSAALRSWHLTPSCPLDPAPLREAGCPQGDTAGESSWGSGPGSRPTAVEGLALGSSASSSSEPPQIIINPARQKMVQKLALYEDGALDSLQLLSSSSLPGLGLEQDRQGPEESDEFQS
Chain of CLK4 (Q9HAZ1 whole entry, species assumed): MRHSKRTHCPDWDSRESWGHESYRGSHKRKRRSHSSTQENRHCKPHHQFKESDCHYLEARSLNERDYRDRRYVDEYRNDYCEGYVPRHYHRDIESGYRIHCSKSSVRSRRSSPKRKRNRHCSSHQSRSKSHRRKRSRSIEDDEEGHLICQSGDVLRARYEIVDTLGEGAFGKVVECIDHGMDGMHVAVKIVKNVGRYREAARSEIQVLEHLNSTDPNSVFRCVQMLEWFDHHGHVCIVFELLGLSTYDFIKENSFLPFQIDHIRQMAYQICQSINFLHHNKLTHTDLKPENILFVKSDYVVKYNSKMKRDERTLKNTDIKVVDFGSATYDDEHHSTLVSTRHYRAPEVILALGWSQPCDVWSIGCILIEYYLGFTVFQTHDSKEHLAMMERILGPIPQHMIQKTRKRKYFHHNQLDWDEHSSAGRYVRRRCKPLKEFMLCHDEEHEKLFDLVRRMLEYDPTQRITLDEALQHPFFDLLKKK
Chain of RPS6KA2(Kin.Dom.2-C-terminal) (Q15349 415-672 limits assumed, species assumed): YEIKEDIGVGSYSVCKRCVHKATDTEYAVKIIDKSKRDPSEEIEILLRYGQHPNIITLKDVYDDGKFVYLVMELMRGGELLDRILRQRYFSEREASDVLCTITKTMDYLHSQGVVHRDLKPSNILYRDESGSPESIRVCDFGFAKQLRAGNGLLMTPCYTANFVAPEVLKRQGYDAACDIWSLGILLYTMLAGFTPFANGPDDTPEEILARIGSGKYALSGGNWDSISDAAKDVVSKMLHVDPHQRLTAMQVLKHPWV
Chain of ROCK2 (O75116 whole entry, species assumed): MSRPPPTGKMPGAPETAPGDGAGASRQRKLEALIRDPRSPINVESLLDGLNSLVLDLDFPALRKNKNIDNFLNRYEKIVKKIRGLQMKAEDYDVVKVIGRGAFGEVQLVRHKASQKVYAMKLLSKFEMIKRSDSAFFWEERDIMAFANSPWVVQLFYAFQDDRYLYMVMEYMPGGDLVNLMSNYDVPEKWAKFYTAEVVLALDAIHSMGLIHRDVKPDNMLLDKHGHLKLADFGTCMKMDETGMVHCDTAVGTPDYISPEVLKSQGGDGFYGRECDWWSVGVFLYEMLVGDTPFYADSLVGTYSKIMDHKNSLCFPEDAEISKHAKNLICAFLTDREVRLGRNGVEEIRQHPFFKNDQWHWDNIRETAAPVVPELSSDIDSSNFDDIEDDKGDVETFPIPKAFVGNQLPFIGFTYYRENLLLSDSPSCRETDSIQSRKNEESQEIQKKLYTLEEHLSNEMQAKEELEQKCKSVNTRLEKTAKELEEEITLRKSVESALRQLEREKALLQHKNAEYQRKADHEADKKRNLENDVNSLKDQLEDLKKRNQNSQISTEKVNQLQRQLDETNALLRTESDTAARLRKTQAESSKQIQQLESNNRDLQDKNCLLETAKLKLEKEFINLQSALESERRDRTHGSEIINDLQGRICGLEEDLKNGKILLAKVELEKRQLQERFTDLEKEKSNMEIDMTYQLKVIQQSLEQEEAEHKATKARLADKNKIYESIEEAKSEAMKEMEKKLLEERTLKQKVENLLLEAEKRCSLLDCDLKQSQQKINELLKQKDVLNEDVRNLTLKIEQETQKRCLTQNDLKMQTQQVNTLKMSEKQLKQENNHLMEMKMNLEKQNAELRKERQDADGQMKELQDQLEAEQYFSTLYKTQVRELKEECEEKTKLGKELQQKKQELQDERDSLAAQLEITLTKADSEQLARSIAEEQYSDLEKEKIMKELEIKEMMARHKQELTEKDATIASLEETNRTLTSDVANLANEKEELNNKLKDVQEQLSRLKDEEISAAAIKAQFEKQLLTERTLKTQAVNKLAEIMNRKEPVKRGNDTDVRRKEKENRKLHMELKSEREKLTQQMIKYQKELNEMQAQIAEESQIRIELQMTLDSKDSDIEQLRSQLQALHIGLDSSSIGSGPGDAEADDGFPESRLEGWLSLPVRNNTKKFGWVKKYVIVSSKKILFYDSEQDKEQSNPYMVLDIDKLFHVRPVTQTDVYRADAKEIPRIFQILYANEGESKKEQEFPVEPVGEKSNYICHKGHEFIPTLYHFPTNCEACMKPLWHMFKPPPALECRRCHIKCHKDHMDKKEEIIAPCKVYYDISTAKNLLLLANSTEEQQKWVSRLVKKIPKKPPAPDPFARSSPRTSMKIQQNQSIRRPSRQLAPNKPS
Chain of CAMK2G (Q13555 whole entry): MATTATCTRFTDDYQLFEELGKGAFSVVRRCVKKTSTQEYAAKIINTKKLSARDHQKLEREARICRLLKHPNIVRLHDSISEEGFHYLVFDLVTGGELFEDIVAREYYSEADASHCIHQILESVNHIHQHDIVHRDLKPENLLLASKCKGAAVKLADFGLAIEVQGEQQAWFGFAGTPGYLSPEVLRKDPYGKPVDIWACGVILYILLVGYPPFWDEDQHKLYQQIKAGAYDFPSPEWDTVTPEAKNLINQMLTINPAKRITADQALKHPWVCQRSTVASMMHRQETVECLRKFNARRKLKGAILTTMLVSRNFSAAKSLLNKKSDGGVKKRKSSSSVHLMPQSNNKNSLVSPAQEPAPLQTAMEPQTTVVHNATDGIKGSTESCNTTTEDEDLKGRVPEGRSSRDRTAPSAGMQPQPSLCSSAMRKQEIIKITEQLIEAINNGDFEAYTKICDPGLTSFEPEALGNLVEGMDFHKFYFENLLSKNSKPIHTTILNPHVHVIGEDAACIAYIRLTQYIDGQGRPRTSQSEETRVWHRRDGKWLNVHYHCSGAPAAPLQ

With `Nc1nc2c(-c3ccccn3)nccc2[nH]1` [drawing 35, 4-(pyrid-2-yl)-1H-imidazo[4,5-c]pyridin-2-amine], the remaining activity (commonly the activity still measured, relative to the control) at 1 µM turned out to be 20% on CAMK2G; 60% at CLK4; 52% on IRAK1; 54% at MAP3K2; 45% at ROCK2; 68% in assay [1]. Further, at YSK4, the remaining activity at 1 µM came to 16%.
As for `Nc1nc2c(-c3cc(Br)c(Br)[nH]3)nccc2[nH]1` [Ageladine A, ageladine A, reference compound], the remaining activity at 1 µM on CAMK2G is 100%; on CLK4 it was 51%; at IRAK1 it was 55%; at MAP3K2, 73%; at ROCK2, 65%; in assay [1], 42%. This compound yielded a remaining activity at 1 µM at YSK4 of 56%. In addition, the remaining activity at 10 µM turned out to be 78% at CAMK2G (10 μM); 11% at CLK4 (10 μM); 35% on IRAK1 (10 μM); 70% on MAP3K2 (10 μM); 38% on ROCK2 (10 μM); 25% in assay [1] (10 μM). This compound also gave a remaining activity at 10 µM on YSK4 (10 μM) of 5.1%.
As to `Nc1nc2c(-c3cnc4ccccc4c3)nccc2[nH]1` [drawing 36, 4-(quinolin-3-yl)-1H-imidazo[4,5-c]pyridin-2-amine], the remaining activity at 1 µM at CAMK2G worked out at 100%; on CLK4 it was 65%; on IRAK1 it was 89%; at MAP3K2, 81%; on ROCK2, 100%; in assay [1], 100%. In addition, the remaining activity at 1 µM at YSK4 came out at 82%.

(Values after patent US20110152313A1 (MACQUARIE UNIVERSITY, priority 2008, published 2011).)
